From ChEMBL document CHEMBL3797052 (Eur J Med Chem, 2016)

Assays:
[1] = Antiproliferative activity against human RXF393 cells assessed as growth inhibition after 48 hrs by sulforhodamine B assay; format: functional; details: RXF 393, 48 h; for CC50: read-out: LC50 (the source's name)
[2] = Antiproliferative activity against human OVCAR4 cells assessed as growth inhibition after 48 hrs by sulforhodamine B assay; format: functional; details: OVCAR-4, 48 h
[3] = Antiproliferative activity against human RPMI8226 cells assessed as cell growth at 10^-7 M after 48 hrs by sulforhodamine B assay; format: functional; details: RPMI-8226, 48 h, read-out: Activity
[4] = system: NCI-H226; assay: Antiproliferative activity against human NCI-H226 cells assessed as cell growth at 10^-7 M after 48 hrs by sulforhodamine B assay; format: functional; details: NCI-H226, 48 h, read-out: Activity
[5] = Antiproliferative activity against human HCT116 cells assessed as cell growth at 10^-7 M after 48 hrs by sulforhodamine B assay; format: functional; details: HCT-116, 48 h, read-out: Activity
[6] = system: HT-29; assay: Antiproliferative activity against human HT-29 cells assessed as cell growth at 10^-7 M after 48 hrs by sulforhodamine B assay; format: functional; details: HT-29, 48 h, read-out: Activity
[7] = system: KM12; assay: Antiproliferative activity against human KM12 cells assessed as cell growth at 10^-7 M after 48 hrs by sulforhodamine B assay; format: functional; details: KM12, 48 h, read-out: Activity
[8] = system: MDA-MB-468; assay: Antiproliferative activity against human MDA-MB-468 cells assessed as cell growth at 10^-6 M after 48 hrs by sulforhodamine B assay; format: functional; details: MDA-MB-468, 48 h, read-out: Activity
[9] = Antiproliferative activity against human UACC62 cells assessed as cell growth at 10^-7 M after 48 hrs by sulforhodamine B assay; format: functional; details: UACC-62, 48 h, read-out: Activity
[10] = Antiproliferative activity against human IGROV1 cells assessed as cell growth at 10^-7 M after 48 hrs by sulforhodamine B assay; format: functional; details: IGROV-1, 48 h, read-out: Activity
[11] = system: 786-0; assay: Antiproliferative activity against human 786-0 cells assessed as cell growth at 10^-7 M after 48 hrs by sulforhodamine B assay; format: functional; details: 786-0, 48 h, read-out: Activity
[12] = Antiproliferative activity against human Caki1 cells assessed as cell growth at 10^-7 M after 48 hrs by sulforhodamine B assay; format: functional; details: CAKI-1, 48 h, read-out: Activity
[13] = Antiproliferative activity against human RXF393 cells assessed as cell growth at 10^-7 M after 48 hrs by sulforhodamine B assay; format: functional; details: RXF 393, 48 h, read-out: Activity
[14] = Antiproliferative activity against human Hs 578T cells assessed as cell growth at 10^-7 M after 48 hrs by sulforhodamine B assay; format: functional; details: read-out: Activity
[15] = Antiproliferative activity against human SF295 cells assessed as growth inhibition after 48 hrs by sulforhodamine B assay; format: functional; details: SF-295, 48 h; for CC50: read-out: LC50 (the source's name)
[16] = system: NCI-H23; assay: Antiproliferative activity against human NCI-H23 cells assessed as growth inhibition after 48 hrs by sulforhodamine B assay; format: functional; details: NCI-H23, 48 h
[17] = system: NCI-H226; assay: Antiproliferative activity against human NCI-H226 cells assessed as growth inhibition after 48 hrs by sulforhodamine B assay; format: functional; details: NCI-H226, 48 h; for CC50: read-out: LC50 (the source's name)
[18] = Antiproliferative activity against human RPMI8226 cells assessed as growth inhibition after 48 hrs by sulforhodamine B assay; format: functional; details: RPMI-8226, 48 h
[19] = Antiproliferative activity against human DU145 cells assessed as growth inhibition after 48 hrs by sulforhodamine B assay; format: functional; details: DU-145, 48 h; for CC50: read-out: LC50 (the source's name)
[20] = target: RAF proto-oncogene serine/threonine-protein kinase (Homo sapiens, UniProt P04049); assay: Inhibition of human CRAF at 10 uM measured after 40 mins by scintillation counting
[21] = target: CYP3A4 (Homo sapiens, UniProt P08684); assay: Inhibition of recombinant human CYP3A4 assessed as remaining enzyme activity using CYP3A4 blue as substrate at 10 uM after 5 mins in presence of NADP by fluorescence plate reader analysis; format: ADME; details: recombinant human CYP3A4, probe CYP3A4 blue, read-out: Activity
[22] = Antiproliferative activity against human RPMI8226 cells assessed as cell growth at 10^-8 M after 48 hrs by sulforhodamine B assay; format: functional; details: RPMI-8226, 48 h, read-out: Activity
[23] = Antiproliferative activity against human HOP92 cells assessed as cell growth at 10^-8 M after 48 hrs by sulforhodamine B assay; format: functional; details: HOP-92, 48 h, read-out: Activity
[24] = Antiproliferative activity against human SF295 cells assessed as cell growth at 10^-8 M after 48 hrs by sulforhodamine B assay; format: functional; details: SF-295, 48 h, read-out: Activity
[25] = Antiproliferative activity against human HCT15 cells assessed as cell growth at 10^-6 M after 48 hrs by sulforhodamine B assay; format: functional; details: HCT-15, 48 h, read-out: Activity
[26] = Antiproliferative activity against human HOP92 cells assessed as cell growth at 10^-4 M after 48 hrs by sulforhodamine B assay; format: functional; details: HOP-92, 48 h, read-out: Activity
[27] = Antiproliferative activity against human UO31 cells assessed as cell growth at 10^-8 M after 48 hrs by sulforhodamine B assay; format: functional; details: UO-31, 48 h, read-out: Activity
[28] = Antiproliferative activity against human Hs 578T cells assessed as cell growth at 10^-8 M after 48 hrs by sulforhodamine B assay; format: functional; details: read-out: Activity
[29] = system: M14; assay: Antiproliferative activity against human M14 cells assessed as cell growth at 10^-6 M after 48 hrs by sulforhodamine B assay; format: functional; details: M14, 48 h, read-out: Activity
[30] = Antiproliferative activity against human IGROV1 cells assessed as cell growth at 10^-6 M after 48 hrs by sulforhodamine B assay; format: functional; details: IGROV-1, 48 h, read-out: Activity
[31] = system: A498; assay: Antiproliferative activity against human A498 cells assessed as cell growth at 10^-6 M after 48 hrs by sulforhodamine B assay; format: functional; details: A498, 48 h, read-out: Activity
[32] = Antiproliferative activity against human Caki1 cells assessed as cell growth at 10^-6 M after 48 hrs by sulforhodamine B assay; format: functional; details: CAKI-1, 48 h, read-out: Activity
[33] = Antiproliferative activity against human Hs 578T cells assessed as cell growth at 10^-6 M after 48 hrs by sulforhodamine B assay; format: functional; details: read-out: Activity
[34] = Antiproliferative activity against human SKOV3 cells assessed as cell growth at 10^-4 M after 48 hrs by sulforhodamine B assay; format: functional; details: SK-OV-3, 48 h, read-out: Activity
[35] = system: 786-0; assay: Antiproliferative activity against human 786-0 cells assessed as cell growth at […] after 48 hrs by sulforhodamine B assay; format: functional; details: 786-0, 48 h, read-out: Activity
[36] = Antiproliferative activity against human DU145 cells assessed as cell growth at 10^-4 M after 48 hrs by sulforhodamine B assay; format: functional; details: DU-145, 48 h, read-out: Activity

Chain of CYP3A4 (P08684 whole entry): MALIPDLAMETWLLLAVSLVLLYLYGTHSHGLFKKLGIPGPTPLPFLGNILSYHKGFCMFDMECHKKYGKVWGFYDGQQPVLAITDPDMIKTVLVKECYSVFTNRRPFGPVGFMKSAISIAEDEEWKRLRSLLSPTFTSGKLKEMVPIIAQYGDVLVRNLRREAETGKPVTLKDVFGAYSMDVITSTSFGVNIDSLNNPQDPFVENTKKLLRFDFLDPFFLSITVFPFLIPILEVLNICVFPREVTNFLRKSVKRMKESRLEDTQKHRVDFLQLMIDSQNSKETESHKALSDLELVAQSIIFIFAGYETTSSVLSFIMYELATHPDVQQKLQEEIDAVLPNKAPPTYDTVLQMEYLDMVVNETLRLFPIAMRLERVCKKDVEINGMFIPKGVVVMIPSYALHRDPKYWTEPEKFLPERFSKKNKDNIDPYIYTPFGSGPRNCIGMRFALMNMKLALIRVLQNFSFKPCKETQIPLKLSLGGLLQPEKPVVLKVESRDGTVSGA
Chain of RAF proto-oncogene serine/threonine-protein kinase (P04049 whole entry): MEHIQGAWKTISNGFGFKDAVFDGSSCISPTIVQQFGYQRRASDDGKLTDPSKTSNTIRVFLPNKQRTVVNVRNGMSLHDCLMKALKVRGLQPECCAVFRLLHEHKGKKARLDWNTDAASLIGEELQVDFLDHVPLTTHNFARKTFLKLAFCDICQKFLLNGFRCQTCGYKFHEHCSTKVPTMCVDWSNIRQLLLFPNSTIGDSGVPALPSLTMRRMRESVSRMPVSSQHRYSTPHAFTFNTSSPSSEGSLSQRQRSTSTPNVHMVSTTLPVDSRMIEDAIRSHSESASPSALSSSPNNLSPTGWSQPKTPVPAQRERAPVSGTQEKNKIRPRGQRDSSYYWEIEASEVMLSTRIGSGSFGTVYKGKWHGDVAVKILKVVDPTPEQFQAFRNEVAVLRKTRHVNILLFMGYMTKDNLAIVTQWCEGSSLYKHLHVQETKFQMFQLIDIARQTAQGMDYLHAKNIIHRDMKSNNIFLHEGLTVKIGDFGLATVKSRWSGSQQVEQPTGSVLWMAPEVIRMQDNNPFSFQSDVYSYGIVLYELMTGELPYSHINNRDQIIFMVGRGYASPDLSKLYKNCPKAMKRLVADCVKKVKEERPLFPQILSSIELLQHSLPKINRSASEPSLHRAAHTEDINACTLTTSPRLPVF

SMILES: CNC(=O)c1cc(Oc2ccc3nc(NC(=O)Nc4ccc(Cl)c(C(F)(F)F)c4)sc3c2)ccn1
- GI50 [1]: 1.93 µM
- TGI [1]: 4.57 µM
- CC50 [1]: 13.9 µM
- GI50 [2]: 1.59 µM
- TGI [2]: 3.31 µM
- growth at 0.1 µM [3]: 101%
- growth at 0.1 µM [4]: 99%
- growth at 0.1 µM [5]: 99%
- growth at 0.1 µM [6]: 103%
- growth at 0.1 µM [7]: 102%
- growth at 1 µM [8]: 64%
- growth at 0.1 µM [9]: 91%
- growth at 0.1 µM [10]: 97%
- growth at 0.1 µM [11]: 101%
- growth at 0.1 µM [12]: 93%
- growth at 0.1 µM [13]: 90%
- growth at 0.1 µM [14]: 89%
- GI50 [15]: 1.79 µM
- TGI [15]: 3.71 µM
- CC50 [15]: 7.66 µM
- GI50 [16]: 2.48 µM
- LC50 [16]: > 100 µM
- TGI [16]: 8.17 µM
- GI50 [17]: 2.69 µM
- TGI [17]: 7.47 µM
- CC50 [17]: > 100 µM
- GI50 [18]: 2.22 µM
- LC50 [18]: > 100 µM
- GI50 [19]: 2.24 µM
- CC50 [19]: > 100 µM
- inhibition [20]: 94.8%
- activity at 5 min, 10 µM [21]: 105%
- growth at 0.01 µM [22]: 100%
- growth at 0.01 µM [23]: 85%
- growth at 0.01 µM [24]: 95%
- growth at 1 µM [25]: 74%
- growth at 100 µM [26]: -64%
- growth at 0.01 µM [27]: 100%
- growth at 0.01 µM [28]: 92%
- growth at 1 µM [29]: 83%
- growth at 1 µM [30]: 88%
- growth at 1 µM [31]: 80%
- growth at 1 µM [32]: 95%
- growth at 1 µM [33]: 65%
- growth at 100 µM [34]: -68%
- growth at 100 µM [35]: -77%
- growth at 100 µM [36]: 17%

SMILES: CNC(=O)c1cc(Oc2ccc3nc(NC(=O)Nc4ccc(Cl)c(Cl)c4)sc3c2)ccn1
- GI50 [1]: 1.84 µM
- TGI [1]: 3.65 µM
- CC50 [1]: 7.24 µM
- GI50 [2]: 2.06 µM
- TGI [2]: 4.03 µM
- CC50 ([2]; read-out: LC50 (the source's name)): 7.89 µM
- growth at 0.1 µM [3]: 107%
- growth at 0.1 µM [4]: 106%
- growth at 0.1 µM [5]: 97%
- growth at 0.1 µM [6]: 105%
- growth at 0.1 µM [7]: 100%
- growth at 1 µM [8]: 86%
- growth at 0.1 µM [9]: 95%
- growth at 0.1 µM [10]: 92%
- growth at 0.1 µM [11]: 100%
- growth at 0.1 µM [12]: 99%
- growth at 0.1 µM [13]: 101%
- growth at 0.1 µM [14]: 108%
- GI50 [15]: 1.53 µM
- TGI [15]: 3.13 µM
- CC50 [15]: 6.41 µM
- GI50 [16]: 2.78 µM
- LC50 [16]: > 100 µM
- TGI [16]: > 100 µM
- GI50 [17]: 2.28 µM
- TGI [17]: 4.58 µM
- CC50 [17]: 9.21 µM
- GI50 [18]: 3.66 µM
- LC50 [18]: > 100 µM
- TGI [18]: > 100 µM
- GI50 [19]: 2.45 µM
- TGI [19]: 6.29 µM
- CC50 [19]: > 100 µM
- inhibition [20]: 98.6%
- activity at 5 min, 10 µM [21]: 104%
- growth at 0.01 µM [22]: 96%
- growth at 0.01 µM [23]: 100%
- growth at 0.01 µM [24]: 86%
- growth at 1 µM [25]: 91%
- growth at 100 µM [26]: -66%
- growth at 0.01 µM [27]: 86%
- growth at 0.01 µM [28]: 100%
- growth at 1 µM [29]: 97%
- growth at 1 µM [30]: 98%
- growth at 1 µM [31]: 115%
- growth at 1 µM [32]: 98%
- growth at 1 µM [33]: 108%
- growth at 100 µM [34]: -69%
- growth at 100 µM [35]: -67%
- growth at 100 µM [36]: -34%
